Experimental findings from PubChem BioAssay AID1964 (Broad Institute, 2009) are described below.

Structures are written as SMILES. Inconclusive results are not listed. The source made the active and inactive calls. How the calls were made is not given here.

RNA-binding protein pos-1 (Caenorhabditis elegans), sequence (G5EF15 whole entry, looked up): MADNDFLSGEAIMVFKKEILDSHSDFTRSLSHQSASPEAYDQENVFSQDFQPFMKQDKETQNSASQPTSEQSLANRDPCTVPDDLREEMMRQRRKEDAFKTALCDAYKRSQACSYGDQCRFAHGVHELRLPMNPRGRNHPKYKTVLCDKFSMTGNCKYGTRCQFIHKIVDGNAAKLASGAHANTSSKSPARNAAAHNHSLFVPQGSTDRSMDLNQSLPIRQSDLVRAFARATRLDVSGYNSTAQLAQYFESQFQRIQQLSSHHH

This assay addresses RNA-binding protein pos-1 (Caenorhabditis elegans) (UniProt G5EF15). In words: inhibitors of POS-1/mex-3 RNA binding, dose response, biochemical, fluorescence polarization (AID 1964). Conditions: POS-1/mex-3 RNA fluorescence polarization.
What is called IC50 is the concentration at which inhibition is half-maximal. As to `C[C@H]1c2cccc(O)c2C(O)=C2C(=O)[C@]3(O)C(O)=C(C(N)=O)C(=O)[C@@H](N(C)C)C3[C@@H](O)C21` (stereo not given in full), the IC50 is > 30 µM (inactive). The figure for `C[C@H]1c2cccc(O)c2C(O)=C2C(=O)[C@]3(O)C(O)=C(C(N)=O)C(=O)[C@@H](N(C)C)[C@@H]3[C@@H](O)[C@@H]21` is > 30 µM (inactive).

Regarding `CCC(C)/C=C(C)/C=C/C1=CC2=C(Cl)C(=O)C(C)(OC(C)=O)C(=O)C2=CO1` (stereo not given), the IC50 is > 30 µM (inactive). The figure for `Cc1cc(/C=C2\C(=O)NC(=O)N(Cc3ccco3)C2=O)c(C)n1-c1ccc(C(=O)O)cc1` is > 30 µM (inactive). As for `Cc1cc(/C=C2/C(=O)NC(=O)N(Cc3ccco3)C2=O)c(C)n1-c1ccc(C(=O)O)cc1`, the figure is > 30 µM (inactive).
